Source: PubChem BioAssay (NCI)
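Following 48 hours of exposure in 96-well plates, responses at five concentrations were used to interpolate endpoints linearly. At the GI50, growth is halved. TGI denotes the concentration required for complete inhibition of growth.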

Experiments:
Assay in all cases: growth of human tumour cells (NCI), 48 h
A498 renal = tested on: A498 renal
EKVX NSCLC = tested on: EKVX NSCLC
HCT-15 colon = tested on: HCT-15 colon
MALME-3M melanoma = tested on: MALME-3M melanoma
OVCAR-3 ovarian = tested on: OVCAR-3 ovarian
SW-620 colon = tested on: SW-620 colon
U251 CNS = tested on: U251 CNS
BT-549 breast = tested on: BT-549 breast
MCF7 breast = tested on: MCF7 breast
PC-3 prostate = tested on: PC-3 prostate

Compound	TGI (A498 renal) [µM]	TGI (EKVX NSCLC) [µM]	TGI (HCT-15 colon) [µM]	TGI (MALME-3M melanoma) [µM]	TGI (OVCAR-3 ovarian) [µM]	TGI (SW-620 colon) [µM]	TGI (U251 CNS) [µM]	GI50 (A498 renal) [µM]	GI50 (BT-549 breast) [µM]	TGI (BT-549 breast) [µM]	GI50 (HCT-15 colon) [µM]	GI50 (MALME-3M melanoma) [µM]	GI50 (MCF7 breast) [µM]	TGI (MCF7 breast) [µM]	GI50 (OVCAR-3 ovarian) [µM]	GI50 (PC-3 prostate) [µM]	TGI (PC-3 prostate) [µM]	GI50 (SW-620 colon) [µM]	GI50 (U251 CNS) [µM]	GI50 (EKVX NSCLC) [µM]
COc1ccc2c(c1)[n+](=O)c(C(=O)C/C(=N\NC(=O)C[N+](C)(C)C)C(=O)Nc1cc(Cl)ccc1Cl)c(C)n2O	> 100	> 100	> 100	> 100	> 100	> 100	> 100													
Nc1nc(-c2ccccc2Cl)cc(-c2ccc(Cl)cc2Cl)n1	22.8		> 100	> 100	20.7	> 100	> 100	3.34	13.8	> 100	5.09	17.7	3.45	> 100	4.05	5.43	> 100	3.41	11.1	
Cn1cc(C2=C(c3cn(CCCN/C(N)=N\[N+](=O)[O-])c4ccccc34)C(=O)NC2=O)c2ccccc21	9.6		> 25	15.9	11.4	> 22.1	15.4	2.85	2.1	9.38	19.8	6.38	1.15	> 22.6	1.17	3.36	17.2	5.63	2.05	
O=CN/C=C\c1cc(O)ccc1O	> 100	32.9	23.7	28.9	25	25.6	> 81													
Cc1nc(N(C)C)nc(-c2cccc(-c3ccn(CCN(C)C)n3)c2)c1C	> 20		> 20		> 20	> 20	> 20	0.628	> 20	> 20	> 20		> 20	> 20	> 20	> 20	> 20	> 20	> 20	
OC1OC2COC(c3ccccc3)OC2C(O)C1O (configuration not stated)	> 100	> 100	> 100	> 100	> 100	> 100	> 100													
CC(=O)c1ccc(-c2ccc(C(C)=O)s2)s1	4.16	> 100	> 100	> 100	> 100	> 100	> 100													
CCCCCCCCCCCC(=O)[O][Sn]([CH2]CCC)([CH2]CCC)[CH2]CCC	0.0883		0.168	0.0772	0.125	0.138	0.125	0.0241	0.0623	0.184	0.0456	0.0211	0.037	0.161	0.0518	0.049	0.162	0.0419	0.0442	
COC(=O)/C=C/c1cc(OC)c2c(c1)[C@@H](C(=O)OC)[C@H](c1ccc(OC)c(OC)c1)O2	33	> 100	> 100	> 100		> 100	> 100	1.06	4.88	> 100	0.486	> 100	0.388	14.2		2.11	> 100	0.561	1.38	4.62
C=C1[C@@H]2CCC(C)(C)[C@H]1CCC(=O)[C@@H]2C(=O)OC	> 100	> 100	> 100	> 100	> 100	> 100	> 100													
NCCCSCC(=O)O		> 100	> 100	> 100	> 100	> 100	> 100													
COC(=O)C1=CCS(=O)(=O)C1	> 100	> 100	> 100	> 100	> 100	> 100														
O=C1C2Cc3ccccc3CN2C(=O)N1CCN1CCOCC1 (configuration not stated)	> 100		> 100	> 100	> 100	> 100	> 100													
COc1ccc(/C=C\c2cc(OC)c(OC(C)=O)c(OC)c2)cc1	45	> 100	97	91.1	> 100	> 100	23.1													
C=C(C=O)[C@@H]1CC=C(C=O)CC1	77.8	67.6	10.1	> 26			6.71	28.8	3.26	> 30.5	2.4	4.39	2.96	> 35.5		4.12	24.2		2.4	14.5
OCC1C2C=CC(O2)[C@H]1CO (some centres not stated)	> 100	> 100	> 100	> 100	> 100	> 100	> 100													
Nc1c(-c2ccc(-c3c(N)[n+]([O-])c4ccccc4[n+]3[O-])cc2)[n+]([O-])c2ccccc2[n+]1[O-]	35.5	79.9	15.4	8.57	29.8	21.6	39.6													
Cc1ccc(Sc2cc([N+](=O)[O-])cc(Sc3ccc(C)cc3)c2Sc2ccc(C)cc2)cc1	> 100	> 100	> 100	> 100	> 100	> 100	> 100													
O=C1CCC(=O)C12CCc1ccccc12		> 100	> 100	> 100	> 100	> 100	> 100													
Cc1cccc(C)c1NC(=O)/C(CC(=O)CC(c1ccccc1)c1c(O)c2ccccc2oc1=O)=N/O (configuration not stated)		> 100	> 100		> 100	> 100	> 100			> 100				> 100			> 100			
CC(=O)Oc1cc(OC(C)=O)c(OC(C)=O)c2c1CC1C(=O)C3(CCc4ccccc43)C(=O)C1C2 (configuration not stated)		37.6	39.5	20.1	16.6	42.7	29.2													
O=C1OC(=O)C2C1C1(c3ccccc3)OC2(c2ccccc2)c2c(Br)c(Br)c(Br)c(Br)c21 (configuration not stated)	> 100	> 100	> 100	> 100	> 100	> 100	> 100													
